SMILES strings stand for the structures. Structures can show the parent of a compound that is named as a salt.

In experiment [1] the target is T1, HCV genotype 1b (BK) NS3 modified enzyme with a R155K mutation (Hepatitis C virus genotype 1b, UniProt P26663, R1181K).
T1 construct: HCV genotype 1b (BK) NS3 modified enzyme
Briefly: HCV NS3 protease time-resolved fluorescence (TRF) assay, genotype 1b R155K. Format: biochemical. To be noted: Ki 1b R155K. In a few lines:
(§1)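 Time-resolved fluorescence, ex 340/em 615 nm, 400 μs delay; IC50 by four-parameter fit. Enzyme preincubated with compound 10 min, then TRF substrate 25 nM final added and reaction run 6 h at RT. Buffer HEPES pH 7.5 with NaCl, glycerol, Triton X-100, DTT, PEG 8000.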

Experiment [2] deals with HCV NS3 protease genotype 3a (3A-1) (Hepatitis C virus genotype 3a, UniProt Q81258). In words: HCV NS3 protease time-resolved fluorescence (TRF) assay, genotype 3a. It is filed as biochemical. To be noted: Ki 3a. The procedure, abridged:
as §1

Setting [3] is: first of two values printed in the cell (not explained).
Where [4] appears, read: second of two values printed in the cell (not explained).
Where [5] appears, read: genotype 1b (BK) NS3 R155K, single value.

As usually defined, the Ki is the dissociation constant of the complex between target and ligand, obtained from inhibition or displacement. As for `C=C[C@@H]1C[C@]1(NC(=O)[C@@H]1C[C@@H]2CN1C(=O)[C@H](C(C)(C)C)NC(=O)O[C@@H]1C[C@H]1CCCCCc1c(nc3ccccc3c1OC1CC3CCC(C1)N3CCOC)O2)C(=O)NS(=O)(=O)C1(C)CC1` (single isomer, unassigned) [Example 276], the Ki came out at 0.013 nM in experiment [1] (setting [3]), 0.019 nM in experiment [1] (setting [4]) and 0.14 nM in experiment [2].

With `C=CC1C[C@]1(NC(=O)[C@@H]1C[C@@H]2CN1C(=O)[C@H](C1CCCC1)NC(=O)O[C@@H]1CCC[C@H]1CC/C=C/Cc1c(nc3ccccc3c1OCCCN(C)C)O2)C(=O)NS(=O)(=O)C1CC1` (stereo partly drawn) [Example 77, (3aR,7S,10S,12R,21E,24aS)-7-cyclo pentyl-N-{(1R,2S)-1-[(cyclopropylsulfonyl)carbamoyl]-2-ethenylcyclopropyl}-19-[3-(dimethylamino)propoxy]-5,8-dioxo-1,2,3,3a,5,6,7,8,11,12,20,23,24, 24a-tetradecahydro-10H-9,12-methano cyclopenta[18,19][1,10,3,6] dioxadiazacyclo-nonadecino[11,12-b]quinoline-10-carboxamide], the Ki in experiment [1] (setting [5]) was determined as 0.09 nM; in experiment [2], 0.72 nM.

On to `C=C[C@@H]1C[C@]1(NC(=O)[C@@H]1C[C@@H]2CN1C(=O)[C@H](C1CCCC1)NC(=O)O[C@@H]1CCC[C@H]1CC/C=C/Cc1c(nc3ccccc3c1OCCc1ccccn1)O2)C(=O)NS(=O)(=O)C1CC1` [Example 43, (3aR,7S,10S,12R,21E,24aS)-7-cyclopentyl-N-{(1R,2S)-1-[(cyclopropylsulfonyl)carbamoyl]-2-ethenylcyclopropyl}-5,8-dioxo-19-[2-(pyridin-2-yl)ethoxy]-1,2,3,3a, 5,6,7,8,11,12,20,23,24,24a-tetradecahydro-10H-9,12-methanocyclopenta [18,19][1,10,3,6]dioxadiazacyclonona decino[11,12-b]quinoline-10-carboxamide], for which the values for the Ki in experiment [1] (setting [5]) and in experiment [2] were 0.28 nM and 9.9 nM, respectively.

On to `C=C[C@@H]1C[C@]1(NC(=O)[C@@H]1C[C@@H]2CN1C(=O)[C@H](C1CCCC1)NC(=O)O[C@@H]1CCC[C@H]1CC/C=C/Cc1c(nc3ccccc3c1OCC(F)(F)CO)O2)C(=O)NS(=O)(=O)C1CC1` [Example 73, (3aR,7S,10S,12R,21E,24aS)-7-cyclopentyl-N-{(1R,2S)-1-[(cyclopropylsulfonyl)carbamoyl]-2-ethenylcyclopropyl}-19-(2,2-difluoro-3-hydroxypropoxy)-5,8-dioxo-1,2,3,3a,5,6,7,8,11,12,20,23,24,24a-tetradecahydro-10H-9,12-methanocyclopenta[18,19][1,10,3,6]dioxadiazacyclononadecino[11,12-b]quinoline-10-carboxamide], for which the Ki came out at 0.14 nM in experiment [1] (setting [5]) and 2.5 nM in experiment [2].

As for `C=C[C@@H]1C[C@]1(NC(=O)[C@@H]1C[C@@H]2CN1C(=O)[C@H](C(C)(C)C)NC(=O)O[C@@H]1C[C@H]1CCCCCc1c(nc3ccccc3c1OCCCN1CCCC1=O)O2)C(=O)NS(=O)(=O)C1(C)CC1` [Example 118, (1aR,5S,8S,10R,22aR)-5-tert-butyl-N-[(1R,2S)-2-ethenyl-1-{[(1-methylcyclopropyl)sulfonyl]carbamoyl}cyclopropyl]-3,6-dioxo-17-[3-(2-oxopyrrolidin-1-yl)propoxy]-1,1a,3,4,5,6,9,10,18,19,20,21,22,22a-tetradeca hydro-8H-7,10-methano cyclopropa[18,19][1,10,3,6] dioxadiazacyclononadecino [11,12-b]quinoline-8-carboxamide], the Ki in experiment [1] (setting [5]) came to 0.066 nM; in experiment [2], 0.89 nM.

In the case of `C=C[C@@H]1C[C@]1(NC(=O)[C@@H]1C[C@@H]2CN1C(=O)[C@H](C1CCCCC1)NC(=O)O[C@@H]1C[C@H]1CCCCCc1c(nc3ccccc3c1OCCCSc1nncn1C)O2)C(=O)NS(=O)(=O)C1(C)CC1` [Example 171, (1aR,5S,8S,10R,22aR)-5-cyclohexyl-N-[(1R,2S)-2-ethenyl-1-{[(1-methylcyclopropyl)sulfonyl]carbamoyl}cyclopropyl]-17-{3-[(4-methyl-4H-1,2,4-triazol-3-yl)sulfanyl]propoxy}-3,6-dioxo-1,1a,3,4,5,6,9,10, 18,19,20,21,22,22a-tetradecahydro-8H-7,10-methanocyclopropa[18,19][1,10,3,6] dioxadiazacyclononadecino[11,12-b] quinoline-8-carboxamide], the Ki in experiment [1] (setting [5]) worked out at 0.099 nM; in experiment [2] it was 2 nM.

On to `C=C[C@@H]1C[C@]1(NC(=O)[C@@H]1C[C@@H]2CN1C(=O)[C@H](C1(C)CCCCC1)NC(=O)O[C@@H]1C[C@H]1CCCCCc1c(nc3ccccc3c1OC1CCNCC1)O2)C(=O)NS(=O)(=O)C1(C)CC1` [Example 268, (1aR,5S,8S,10R,22aR)—N-[(1R,2S)-2-ethenyl-1-{[(1-methylcyclopropyl)sulfonyl]carbamoyl}cyclopropyl]-5-(1-methylcyclohexyl)-3,6-dioxo-17-(piperidin-4-yloxy)-1,1a,3,4,5,6,9,10,18,19,20,21,22,22a-tetradecahydro-8H-7,10-methanocyclopropa[18,19][1,10,3,6]dioxadiazacyclononadecino[11,12-b]quinoline-8-carboxamide], for which the Ki amounted to 0.012 nM in experiment [1] (setting [3]), 0.034 nM in experiment [1] (setting [4]) and 0.2 nM in experiment [2].

Turning to `C=C[C@@H]1C[C@]1(NC(=O)[C@@H]1C[C@@H]2CN1C(=O)[C@H](C1CCCCC1)NC(=O)O[C@@H]1C[C@H]1CCCCCc1c(nc3ccccc3c1OCCCN1CCN(C)CC1)O2)C(=O)NS(=O)(=O)C1(C)CC1` [Example 251, (1aR,5S,8S,10R,22aR)-5-cyclohexyl-N-[(1R,2S)-2-ethenyl-1-{[(1-methylcyclopropyl)sulfonyl]carbamoyl}cyclopropyl]-17-[3-(4-methylpiperazin-1-yl)propoxy]-3,6-dioxo-1,1a,3,4,5,6,9,10,18,19,20,21,22,22a-tetradecahydro-8H-7,10-methanocyclopropa[18,19][1,10,3,6]dioxadiazacyclononadecino[11,12-b]quinoline-8-carboxamide], the Ki in experiment [1] (setting [3]) turned out to be 0.015 nM; in experiment [1] (setting [4]) it was 0.051 nM; in experiment [2], 1.15 nM.

As to `C=C[C@@H]1C[C@]1(NC(=O)[C@@H]1C[C@@H]2CN1C(=O)[C@H](C1CCCCC1)NC(=O)O[C@@H]1C[C@H]1CCCCCc1c(nc3ccccc3c1OC1CC3COCC(C1)N3C(=O)OC(C)(C)C)O2)C(=O)NS(=O)(=O)C1(C)CC1` (stereo partly drawn) [Example 287, tert-butyl 7-{[(1aR,5S,8S,10R,22aR)-5-cyclohexyl-8-{[(1R,2S)-2-ethenyl-1-{[(1-methylcyclopropyl)sulfonyl]carbamoyl}cyclopropyl]carbamoyl}-3,6-dioxo-1,1a,3,4,5,6,9,10,18,19,20,21,22,22a-tetradecahydro-8H-7,10-methanocyclopropa[18,19][1,10,3,6]dioxadiazacyclononadecino[11,12-b]quinolin-17-yl]oxy}-3-oxa-9-azabicyclo[3.3.1]nonane-9-carboxylate], the Ki in experiment [1] (setting [3]) was found to be 0.092 nM; in experiment [1] (setting [4]) it was 2.55 nM; in experiment [2], 58 nM.

On to `C=C[C@@H]1C[C@]1(NC(=O)[C@@H]1C[C@@H]2CN1C(=O)[C@H](C1CCCC1)NC(=O)O[C@@H]1CCC[C@H]1CC/C=C/Cc1c(nc3ccccc3c1OCCCCO)O2)C(=O)NS(=O)(=O)C1CC1` [Example 68, (3aR,7S,10S,12R,21E,24aS)-7-cyclopentyl-N-{(1R,2S)-1-[(cyclopropylsulfonyl)carbamoyl]-2-ethenylcyclopropyl}-19-(4-hydroxybutoxy)-5,8-dioxo-1,2,3,3a,5,6,7,8,11,12,20,23,24,24a-tetradecahydro-10H-9,12-methanocyclopenta[18,19][1,10,3,6]dioxadiazacyclononadecino[11,12-b]quinoline-10-carboxamide], for which the Ki in experiment [1] (setting [5]) turned out to be 0.16 nM; in experiment [2] it was 1.6 nM.

`C=C[C@@H]1C[C@]1(NC(=O)[C@@H]1C[C@@H]2CN1C(=O)[C@H](C1CCCCC1)NC(=O)O[C@@H]1C[C@H]1CCCCCc1c(nc3ccccc3c1O[C@@H]1CCN(C(=O)OC(C)(C)C)C[C@@H]1F)O2)C(=O)NS(=O)(=O)C1(C)CC1` [Example 292, tert-butyl (3S,4R)-4-{[(1aR,5S,8S,10R,22aR)-5-cyclohexyl-8-{[(1R,2S)-2-ethenyl-1-{[(1-methylcyclopropyl)sulfonyl]carbamoyl}cyclopropyl]carbamoyl}-3,6-dioxo-1,1a,3,4,5,6,9,10,18,19,20,21,22,22a-tetradecahydro-8H-7,10-methanocyclopropa[18,19][1,10,3,6]dioxadiazacyclononadecino[11,12-b]quinolin-17-yl]oxy}-3-fluoropiperidine-1-carboxylate]: the Ki in experiment [1] (setting [3]) amounted to 0.12 nM; in experiment [1] (setting [4]), 0.733 nM; in experiment [2], 49.4 nM.

On to `C=C[C@@H]1C[C@]1(NC(=O)[C@@H]1C[C@@H]2CN1C(=O)[C@H](C(C)(C)C)NC(=O)O[C@@H]1CCC[C@H]1CCCCCc1c(nc3ccccc3c1OCCCN(C)C)O2)C(=O)NS(=O)(=O)C1(COC)CC1` [Example 97, (3aR,7S,10S,12R,24aR)-7-tert-butyl-19-[3-(dimethyl-amino)propoxy]-N-[(1R,2S)-2-ethenyl-1-({[1-(methoxymethyl)cyclopropyl]sulfonyl}carbamoyl)cyclopropyl]-5,8-dioxo-1,2,3,3a,5,6,7,8,11,12,20,21,22,23, 24,24a-hexadecahydro-10H-9,12-methanocyclopenta[18,19] [1,10,3,6]dioxadiaza-cyclononadecino [11,12,-b]quinoline-10-carboxamide], for which the Ki worked out at 0.08 nM in experiment [1] (setting [5]) and 73 nM in experiment [2].

`C=C[C@@H]1CC1(NC(=O)[C@@H]1C[C@@H]2CN1C(=O)[C@H](C(C)(C)C)NC(=O)O[C@@H]1C[C@H]1CCCCCc1c(nc3ccccc3c1OC1C3CNCC1COC3)O2)C(=O)NS(=O)(=O)C1(C)CC1` (single isomer, unassigned) [Example 258, trifluoroacetate]: the Ki is 0.012 nM in experiment [1] (setting [3]), 0.079 nM in experiment [1] (setting [4]) and 2.75 nM in experiment [2].

(Values after patent US9328138B2 (priority 2011, dated 2016).)
